This assay addresses Mitogen-activated protein kinase 9 (Homo sapiens, UniProt P45984). In words: Inhibition of His6-tagged JNK2 (unknown origin) assessed as reduction in c-Jun phosphorylation using GST-c-Jun (1 to 79 residues) and [gamma32P]ATP incubated for 1 hr by scintillation counting assay.
Chain of Mitogen-activated protein kinase 9 (P45984 whole entry, the tested form may be a part): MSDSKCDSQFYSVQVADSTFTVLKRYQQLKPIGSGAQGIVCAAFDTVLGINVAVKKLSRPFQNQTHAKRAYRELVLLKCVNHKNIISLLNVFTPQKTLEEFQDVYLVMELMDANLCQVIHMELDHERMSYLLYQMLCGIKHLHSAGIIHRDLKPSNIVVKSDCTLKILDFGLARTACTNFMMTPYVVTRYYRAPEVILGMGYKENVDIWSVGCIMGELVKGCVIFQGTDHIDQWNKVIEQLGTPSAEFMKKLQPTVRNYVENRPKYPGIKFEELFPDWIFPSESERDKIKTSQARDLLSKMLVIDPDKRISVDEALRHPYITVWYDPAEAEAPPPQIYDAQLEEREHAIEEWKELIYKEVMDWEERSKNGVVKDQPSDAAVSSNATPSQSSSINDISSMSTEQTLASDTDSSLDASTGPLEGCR
`c1cc2[nH]nc(-c3ccc4c(c3)OCCO4)c2cc1-c1n[nH]c(CN2CCCC2)n1`: the IC50 was in the range of 1 to 10 µM. With `COc1ccc2cc(-c3n[nH]c4ccc(-c5n[nH]c(CN(C)C)n5)cc34)ccc2c1` the figure was 1 to 10 µM. Then `O=C(Nc1ccccc1)c1cccc(-c2n[nH]c3ccc(-c4n[nH]c(CN5CCCC5)n4)cc23)c1`, with 0.5 to 10 µM; and `CN1CCN(CC(=O)Nc2cccc(-c3n[nH]c4ccc(-c5nc[nH]n5)cc34)c2)CC1`, with 1 to 10 µM; and `Fc1ccc(-c2n[nH]c3ccc(-c4n[nH]c(CN5CCCC5)n4)cc23)cc1`, with 0.5 to 10 µM. Then `COc1ccc2cc(-c3n[nH]c4ccc(-c5n[nH]c(CN6CCCC6)n5)cc34)ccc2c1`, with 0.5 to 10 µM; and `CC(O)Cc1nnc(-c2ccc3[nH]nc(-c4ccc(F)cc4)c3c2)[nH]1` (stereo in doubt; form 1), with 0.5 to 10 µM. Regarding `CC(O)Cc1nnc(-c2ccc3[nH]nc(-c4ccc(F)cc4)c3c2)[nH]1` (stereo in doubt; form 2), the IC50 lay in the range of 1 to 10 µM.

Consider `c1cc(OCCN2CCCCC2)cc(-c2n[nH]c3ccc(-c4nc[nH]n4)cc23)c1` [CC-401], for which the IC50 lay within 1 to 10 µM.

(Values after ChEMBL document CHEMBL3882725, “Indazole derivatives as JNK inhibitors and compositions and methods related thereto” (2002).)
